In patent US7141533B2, “Hetaryl-substituted heterocycles” (Bayer CropScience AG, priority 2000, dated 2006):

What was measured:
Type in all cases: in vivo
[1] = system: Meloidogyne incognita; test: Meloidogyne test; conditions: Meloidogyne incognita egg/larvae on lettuce in sand
Procedure: [table] To produce a suitable preparation of active compound, 1 part by weight of active compound is mixed with the stated amounts of solvent and emulsifier, and the concentrate is diluted with water to the desired concentration. Containers are filled with sand, solution of active compound, Meloidogyne incognita egg/larvae suspension and lettuce seeds. The lettuce seeds germinate and the plants develop. On the roots, galls are formed. After the desired period of time, the nematicidal action in % is determined using the formation of galls as a measure. 100% means that no galls have been found; 0% means that the number of galls on the treated plants corresponds to that on the untreated control.

[2] = system: sugar beet; test: Pre-emergence test; conditions: 125 g ai/ha, after three weeks
Procedure: (§1) [table] To produce a suitable preparation of active compound, 1 part by weight of active compound is mixed with the stated amount of solvent, the stated amount of emulsifier is added and the concentrate is diluted with water to the desired concentration. Seeds of the test plants are sown in normal soil. After about 24 hours, the soil is sprayed with the preparation of active compound such that the particular amounts of active compound desired are applied per unit area. The concentration of the spray liquor is chosen such that the particular amounts of active compound desired are applied in 1000 1 of water/ha. After three weeks, the degree of damage to the plants is rated in % damage in comparison to the development of the untreated control. [table]

[3] = system: Matricaria; test: Pre-emergence test; conditions: 125 g ai/ha, after three weeks
Procedure: as §1

[4] = system: Alopecurus; test: Pre-emergence test; conditions: 125 g ai/ha, after three weeks
Procedure: as §1

[5] = system: Setaria; test: Pre-emergence test; conditions: 125 g ai/ha, after three weeks
Procedure: as §1

[6] = system: Lolium; test: Pre-emergence test; conditions: 125 g ai/ha, after three weeks
Procedure: as §1

[7] = system: Avena fatua; test: Pre-emergence test; conditions: 125 g ai/ha, after three weeks
Procedure: as §1

[8] = system: oilseed rape; test: Pre-emergence test; conditions: 125 g ai/ha, after three weeks
Procedure: as §1

[9] = system: larvae of the mustard beetle (Phaedon cochleariae); test: Phaedon larvae test; conditions: cabbage leaves dipped
Procedure: (§2) [table] To produce a suitable preparation of active compound, 1 part by weight of active compound is mixed with the stated amounts of solvent and emulsifier, and the concentrate is diluted with emulsifier-containing water to the desired concentration. Cabbage leaves (Brassica oleracea) are treated by being dipped into the preparation of active compound of the desired concentration and are populated with the larvae of the mustard beetle (Phaedon cochleariae) while the leaves are still moist. After the desired period of time, the kill in % is determined. 100% means that all beetle larvae have been killed; 0% means that none of the beetle larvae have been killed.

[10] = system: caterpillars of the army worm (Spodoptera frugiperda); test: Spodoptera frugiperda test; conditions: cabbage leaves dipped
Procedure: as §2, with “caterpillars” for “the larvae”, “army worm (Spodoptera frugiperda)” for “mustard beetle (Phaedon cochleariae)”, “caterpillars” for “beetle larvae”

[11] = system: Amaranthus; test: Post-emergence test; conditions: 250 g ai/ha, after three weeks
Procedure: as §1, with “Test plants” for “Seeds”, “a height of 5 to 15 cm” for “the test plants”, “are” for “are sown in normal soil. After about 24 hours, the soil is”

[12] = system: Chenopodium; test: Post-emergence test; conditions: 250 g ai/ha, after three weeks
Procedure: as §1, with “Test plants” for “Seeds”, “a height of 5 to 15 cm” for “the test plants”, “are” for “are sown in normal soil. After about 24 hours, the soil is”

[13] = system: Alopecurus; test: Post-emergence test; conditions: 250 g ai/ha, after three weeks
Procedure: as §1, with “Test plants” for “Seeds”, “a height of 5 to 15 cm” for “the test plants”, “are” for “are sown in normal soil. After about 24 hours, the soil is”

[14] = system: Setaria; test: Post-emergence test; conditions: 250 g ai/ha, after three weeks
Procedure: as §1, with “Test plants” for “Seeds”, “a height of 5 to 15 cm” for “the test plants”, “are” for “are sown in normal soil. After about 24 hours, the soil is”

[15] = system: Avena fatua; test: Post-emergence test; conditions: 250 g ai/ha, after three weeks
Procedure: as §1, with “Test plants” for “Seeds”, “a height of 5 to 15 cm” for “the test plants”, “are” for “are sown in normal soil. After about 24 hours, the soil is”

[16] = system: oilseed rape; test: Post-emergence test; conditions: 250 g ai/ha, after three weeks
Procedure: as §1, with “Test plants” for “Seeds”, “a height of 5 to 15 cm” for “the test plants”, “are” for “are sown in normal soil. After about 24 hours, the soil is”

[17] = system: Echinochloa; test: Post-emergence test; conditions: 250 g ai/ha, after three weeks
Procedure: as §1, with “Test plants” for “Seeds”, “a height of 5 to 15 cm” for “the test plants”, “are” for “are sown in normal soil. After about 24 hours, the soil is”

[18] = system: peach aphid (Myzus persicae); test: Myzus test; conditions: cabbage leaves dipped
Procedure: as §2, with “oleracea) which are heavily infested by the peach aphid (Myzus persicae)” for “oleracea)”, “concentration.” for “concentration and are populated with the larvae of the mustard beetle (Phaedon cochleariae) while the leaves are still moist.”, “aphids” for “beetle larvae”

COC1CCC2(CC1)OC(=O)C(c1nc(-c3ccc(Cl)cc3)sc1C)=C2O (stereo not drawn) [Example I-2-A-a-1]
nematicidal action (formation of galls) [1]: good activity | % damage sugar beet [2]: 0% | % damage Matricaria [3]: 100% | % damage Alopecurus [4]: 90% | % damage Setaria [5]: 100% | % damage Lolium [6]: 100% | % damage Avena fatua [7]: 100% | % damage oilseed rape [8]: 0% | kill of beetle larvae [9]: good activity | kill of caterpillars [10]: good activity | % damage Amaranthus [11]: 70% | % damage Chenopodium [12]: 70% | % damage Alopecurus [13]: 80% | % damage Setaria [14]: 100% | % damage Avena fatua [15]: 95% | % damage oilseed rape [16]: 20% | % damage Echinochloa [17]: 100% | kill of aphids [18]: good activity
